Measured values published in US6361788B1, “Synergistic biocide composition” (Thor Chemie GmbH, priority 1997, dated 2002).

How the values were obtained:
Assay type in all cases: cell-based
Settings in all cases: for growth of the microorganism: MIT ppm = row head c0
Pseudomonas putida = experiment: MIC and synergy of MIT and BIT in Müller-Hinton broth, 48 h; for growth of the microorganism: key: growth of the microorganism took place (symbol '+'); or not (symbol '−')
Procedure: (§1) The synergy index is calculated according to the method of F. C. Kull et al., Applied Microbiology, Vol. 9 (1961), p. 538. Here the synergy index is calculated using the following formula:
(§2) Synergy index SI=Qa/QA+Qb/QB.
The synergy of the two active substances MIT and BIT against the microorganism Pseudomonas putida is shown as in Example 1.
The test batches again contained a Müller-Hinton broth as a nutrient medium. The cell density was 10^6 cells/mL. The incubation time was 48 h at 25° C. Each sample was incubated on an incubation shaker at 120 rpm.

Pseudomonas stutzeri = experiment: MIC and synergy of MIT and BIT in Müller-Hinton broth, 72 h; for growth of the microorganism: key: growth of the microorganism took place (symbol '+'); or not (symbol '−')
Procedure: as §1, §2
The synergy of MIT and BIT against the microorganism Pseudomonas stutzeri is shown as in Example 1.
(§3) The test batches again contained a Müller-Hinton broth as a nutrient medium. The cell density was 10^6 cells/mL. The incubation time was 72 h at 25° C. Each sample was incubated on an incubation shaker at 120 rpm.

Klebsiella pneumoniae = experiment: as above; for growth of the microorganism: key: growth of the microorganism took place (symbol '+'); or not (symbol '−')
Procedure: as §1, §2
The synergy of the two active substances MIT and BIT against the microorganism Klebsiella pneumoniae is shown as in example 1.
as §3

Aspergillus niger = experiment: MIC and synergy of MIT and BIT in Sabouraud maltose broth, 96 h; for growth of the microorganism: key: growth of the microorganism took place (symbol '+'); or not (symbol '−')
Procedure: as §1, §2
The synergy of the two active substances MIT and BIT against the microorganism Aspergillus niger is shown as in Example 1.
The test batches contained a Sabouraud maltose broth as a nutrient medium. The spore concentration was 10^6 per mL. The incubation time was 96 h at 25° C. Each sample was incubated on an incubation shaker at 120 rpm.

[1] = BIT share of the BIT/MIT mixture at MIC, 72 h

O=c1[nH]sc2ccccc12 [BIT, 1,2-benzisothiazolin-3-one]
MIC at Total concentration BIT + MIT Qa + Qb (Pseudomonas putida; 48 h): 60 ppm
Qa/QA (Pseudomonas putida; 48 h): 1.00
Synergy index Qa/QA + Qb/QB (Pseudomonas putida; 48 h): 1.00
growth of the microorganism (Pseudomonas putida; BIT 0.5 ppm, 48 h): +
growth of the microorganism (Pseudomonas putida; BIT 1 ppm, 48 h): +
growth of the microorganism (Pseudomonas putida; BIT 2.5 ppm, 48 h): +
growth of the microorganism (Pseudomonas putida; BIT 5 ppm, 48 h): +
growth of the microorganism (Pseudomonas putida; BIT 7.5 ppm, 48 h): +
growth of the microorganism (Pseudomonas putida; BIT 10 ppm, 48 h): +
growth of the microorganism (Pseudomonas putida; BIT 15 ppm, 48 h): +
growth of the microorganism (Pseudomonas putida; BIT 20 ppm, 48 h): +
growth of the microorganism (Pseudomonas putida; BIT 25 ppm, 48 h): +
growth of the microorganism (Pseudomonas putida; BIT 30 ppm, 48 h): +
growth of the microorganism (Pseudomonas putida; BIT 40 ppm, 48 h): +
growth of the microorganism (Pseudomonas putida; BIT 50 ppm, 48 h): +
growth of the microorganism (Pseudomonas putida; BIT 60 ppm, 48 h): −
growth of the microorganism (Pseudomonas putida; BIT 70 ppm, 48 h): −
growth of the microorganism (Pseudomonas putida; BIT 80 ppm, 48 h): −
MIC at BIT concentration Qa (Pseudomonas putida; BIT share of the BIT/MIT mixture at MIC, 48 h): 60 ppm
MIC value (Pseudomonas putida; used alone, 48 h at 25° C.): 60 ppm
MIC at Total concentration BIT + MIT Qa + Qb (Pseudomonas stutzeri; 72 h): 20 ppm
Qa/QA (Pseudomonas stutzeri; 72 h): 1.00
Synergy index Qa/QA + Qb/QB (Pseudomonas stutzeri; 72 h): 1.00
growth of the microorganism (Pseudomonas stutzeri; BIT 0.5 ppm, 72 h): +
growth of the microorganism (Pseudomonas stutzeri; BIT 1 ppm, 72 h): +
growth of the microorganism (Pseudomonas stutzeri; BIT 2.5 ppm, 72 h): +
growth of the microorganism (Pseudomonas stutzeri; BIT 5 ppm, 72 h): +
growth of the microorganism (Pseudomonas stutzeri; BIT 7.5 ppm, 72 h): +
growth of the microorganism (Pseudomonas stutzeri; BIT 10 ppm, 72 h): +
growth of the microorganism (Pseudomonas stutzeri; BIT 15 ppm, 72 h): +
growth of the microorganism (Pseudomonas stutzeri; BIT 20 ppm, 72 h): −
growth of the microorganism (Pseudomonas stutzeri; BIT 25 ppm, 72 h): −
growth of the microorganism (Pseudomonas stutzeri; BIT 30 ppm, 72 h): −
MIC at BIT concentration Qa (Pseudomonas stutzeri; [1]): 20 ppm
MIC value (Pseudomonas stutzeri; used alone, 72 h at 25° C.): 20 ppm
MIC at Total concentration BIT + MIT Qa + Qb (Klebsiella pneumoniae; 72 h): 25 ppm
Qa/QA (Klebsiella pneumoniae; 72 h): 1.00
Synergy index Qa/QA + Qb/QB (Klebsiella pneumoniae; 72 h): 1.00
growth of the microorganism (Klebsiella pneumoniae; BIT 1 ppm, 72 h): +
growth of the microorganism (Klebsiella pneumoniae; BIT 2.5 ppm, 72 h): +
growth of the microorganism (Klebsiella pneumoniae; BIT 5 ppm, 72 h): +
growth of the microorganism (Klebsiella pneumoniae; BIT 7.5 ppm, 72 h): +
growth of the microorganism (Klebsiella pneumoniae; BIT 10 ppm, 72 h): +
growth of the microorganism (Klebsiella pneumoniae; BIT 15 ppm, 72 h): +
growth of the microorganism (Klebsiella pneumoniae; BIT 20 ppm, 72 h): +
growth of the microorganism (Klebsiella pneumoniae; BIT 25 ppm, 72 h): −
growth of the microorganism (Klebsiella pneumoniae; BIT 30 ppm, 72 h): −
growth of the microorganism (Klebsiella pneumoniae; BIT 35 ppm, 72 h): −
MIC at BIT concentration Qa (Klebsiella pneumoniae; [1]): 25 ppm
MIC value (Klebsiella pneumoniae; used alone, 72 h at 25° C.): 25 ppm
MIC at Total concentration BIT + MIT Qa + Qb (Aspergillus niger; 96 h): 750 ppm
Qa/QA (Aspergillus niger; 96 h): 1.00
Synergy index Qa/QA + Qb/QB (Aspergillus niger; 96 h): 1.00
growth of the microorganism (Aspergillus niger; BIT 5 ppm, 96 h): +
growth of the microorganism (Aspergillus niger; BIT 10 ppm, 96 h): +
growth of the microorganism (Aspergillus niger; BIT 25 ppm, 96 h): +
growth of the microorganism (Aspergillus niger; BIT 50 ppm, 96 h): +
growth of the microorganism (Aspergillus niger; BIT 75 ppm, 96 h): +
growth of the microorganism (Aspergillus niger; BIT 100 ppm, 96 h): −
growth of the microorganism (Aspergillus niger; BIT 150 ppm, 96 h): −
MIC at BIT concentration Qa (Aspergillus niger; share of the BIT/MIT mixture at MIC, 96 h): 750 ppm
MIC value (Aspergillus niger; used alone, 96 h at 25° C.): 100 ppm
